Measurements taken from US9169255B2, “Caffeinated compounds and compositions for treatment of amyloid diseases and synucleinopathies” (ProteoTech Inc, priority 2011, dated 2015).

What was measured:
Assay type in all cases: biochemical
wild-type α-synuclein = wild-type α-synuclein (Homo sapiens, UniProt P37840); experiment: Thioflavin T fluorometry, inhibition of formation of α-synuclein β-sheet from fresh α-synuclein
Method: To test whether the compounds can inhibit formation of α-synuclein β-sheet, the same assay as described in Example 2, was utilized but the α-synuclein was fresh and not pre-fibrillized. Fresh wild-type α-synuclein was dissolved in a buffer containing 9.5 mM phosphate, 137 mM sodium chloride and 2.7 mM potassium chloride (phosphate-buffered saline; PBS), and the pH was adjusted to pH 7.4. This solution was then lyophilized and dissolved in 1.0 ml deionized water at 0.5 mg/ml (35 μM). As indicated above the test compounds (typically at test compound:α-synuclein molar ratios of 10:1, 1:1, 0.1:1, and 0.01:1) were then added to the α-synuclein. Following 24-38 hours of co-incubation, the incubation mixtures were diluted 1:10 and 50 μl of each diluted incubation mixture was transferred into a 96-well microtiter plate containing 150 μl of distilled water and 50 μl of a Thioflavin T solution (i.e. 500 μM Thioflavin T in 250 mM phosphate buffer, pH 6.8). The final concentration of α-synuclein was 0.7 μM and the concentration of Thioflavin T reagent was 100 μM in 50 mM phosphate buffer, pH 6.8. In some experiments, 200 μl of each diluted incubation mixture was combined in the 96-well microtiter plate with 50 μl of the 500 μM Thioflavin T solution to give 2.8 μM α-synuclein in the presence of 100 μM Thioflavin T reagent. The fluorescence was read at 485 nm (444 nm excitation wavelength) using an ELISA plate fluorometer after subtraction with buffer alone or compound alone, as blank. Positive control compound 1 performed nearly identically in inhibiting α-synuclein aggregation regardless of whether 0.7 μM or 2.8 μM α-synuclein was subsequently used in the Thioflavin T reaction.

α-synuclein fibrils = target: T1, α-synuclein fibrils (Homo sapiens, UniProt P37840); experiment: Congo red binding assay, pre-formed α-synuclein fibrils; details: 2-day incubation
T1 construct: purchased rPeptide, Bogart, Calif
Method: In this set of studies, the efficacy of certain compounds provided herein to cause a disassembly/disruption/disaggregation of pre-formed fibrils of Parkinson's disease (i.e. consisting of α-synuclein fibrils) was analyzed. For the studies described below in Parts A and B, 69 μM of α-synuclein (rPeptide, Bogart, Calif.) was first incubated at 37° C. for 4 days in 20 mM sodium acetate buffer at pH 4 with circular shaking (1,300 rpm) to cause α-synuclein aggregation and fibril formation.
In the Congo red binding assay, the ability of a given test compound to alter α-synuclein aggregate binding to Congo red is quantified. In this assay Congo red binds specifically to fibrillar protein, and this binding is directly proportional to the amount of fibrils formed. Following initial α-synuclein fibrilization as described above, α-synuclein aggregates and test compounds were incubated for 2 days and then vacuum filtered through a 0.2 μm filter. The amount of α-synuclein retained in the filter was then quantitated following staining of the filter with Congo red. After appropriate washing of the filter, any lowering of the Congo red color on the filter in the presence of the test compound (compared to the Congo red staining of the protein in the absence of the test compound—i.e. α-synuclein alone) was indicative of the test compound's ability to diminish/alter the amount of aggregated and congophilic α-synuclein and thus cause disassembly/disruption/disaggregation of α-synuclein fibrils.
In one study, the ability of α-synuclein fibrils to bind Congo red following a 2-day incubation of α-synuclein in the absence or presence of increasing amounts of the compounds provided herein, including positive reference (control) compounds (at test compound:α-synuclein molar ratios of 10:1, 1:1, 0.1:1, 0.01:1) was determined. The results of this study indicate that compounds of this invention disrupt/disaggregate/disassemble pre-formed α-synuclein aggregates as indicated by their ability to inhibit Parkinson's disease type α-synuclein fibril binding to Congo red.

Aβ 1-42 fibrils [1] = target: T2, Aβ 1-42 fibrils (Homo sapiens, UniProt P05067); experiment: Thioflavin T fluorometry, disruption of pre-fibrillized Aβ 1-42; details: for Thioflavin T fluorometry % Inhibition: 2-day incubation; for effect against Aβ fibrils/aggregates at substoichiometric concentrations: test compound:Aβ molar ratios of 0.1:1 and 0.05:1
T2 construct: pre-fibrillized human Aβ 1-42 (rPeptide); purchased rPeptide
T2 sequence (P05067 672-713 limits assumed): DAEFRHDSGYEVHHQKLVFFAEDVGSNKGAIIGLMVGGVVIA
Source text: In this assay Thioflavin T binds specifically to fibrillar amyloid, and this binding produces a fluorescence enhancement at 485 nm that is directly proportional to the amount of amyloid fibrils formed. The higher the fluorescence, the greater the amount of amyloid fibrils formed (Naki et al., Lab. Invest. 65:104-110, 1991; Levine III, Protein Sci. 2:404-410, 1993; Amyloid: Int. J. Exp. Clin. […] The emission fluorescence was read at 485 nm (444 nm excitation wavelength) using an ELISA plate fluorometer after subtraction with buffer alone or compound alone, as blank.

Aβ 1-42 fibrils [2] = target: T2, Aβ 1-42 fibrils; experiment: Congo red binding assay, Aβ 1-42 fibrils; details: for Congo Red Binding % Inhibition: 2-day incubation
Method: In the Congo red binding assay the ability of a test compound to alter β-amyloid binding to Congo red is quantified. In this assay, Aβ 1-42 (as prepared for the Thio T assay) and test compounds were incubated for 2 days and then vacuum filtered through a 0.2 μm filter. The amount of Aβ 1-42 retained in the filter was then quantitated following staining of the filter with Congo red. After appropriate washing of the filter, any lowering of the Congo red color on the filter in the presence of the test compound (compared to the Congo red staining of the amyloid protein in the absence of the test compound) was indicative of the test compound's ability to diminish/alter the amount of aggregated and congophilic Aβ.

[3] = compound:peptide molar ratio 0.01:1
[4] = compound:peptide molar ratio 0.1:1
[5] = compound:peptide molar ratio 1:1
[6] = compound:peptide molar ratio 10:1
[7] = compound:peptide molar ratio 0.05:1
[8] = compound:peptide molar ratio 5:1

Compound	ThioT Assay % Inhibition (wild-type α-synuclein; [3])	ThioT Assay % Inhibition (wild-type α-synuclein; [4])	ThioT Assay % Inhibition (wild-type α-synuclein; [5])	ThioT Assay % Inhibition (wild-type α-synuclein; [6])	Congo Red Binding- % Inhibition (α-synuclein fibrils; [3])	Congo Red Binding- % Inhibition (α-synuclein fibrils; [4])	Congo Red Binding- % Inhibition (α-synuclein fibrils; [5])	Congo Red Binding- % Inhibition (α-synuclein fibrils; [6])	Thioflavin T fluorometry % Inhibition (Aβ 1-42 fibrils [1]; [7])	Thioflavin T fluorometry % Inhibition (Aβ 1-42 fibrils [1]; [4])	Thioflavin T fluorometry % Inhibition (Aβ 1-42 fibrils [1]; [5])	Thioflavin T fluorometry % Inhibition (Aβ 1-42 fibrils [1]; [8])	Thioflavin T fluorometry % Inhibition (Aβ 1-42 fibrils [1]; [6])	Congo Red Binding % Inhibition (Aβ 1-42 fibrils [2]; [4])	Congo Red Binding % Inhibition (Aβ 1-42 fibrils [2]; [5])	Congo Red Binding % Inhibition (Aβ 1-42 fibrils [2]; [8])	Congo Red Binding % Inhibition (Aβ 1-42 fibrils [2]; [6])	effect against Aβ fibrils/aggregates at substoichiometric concentrations (Aβ 1-42 fibrils [1])	inhibition of Aβ 1-42 fibrils (Thioflavin T fluorometry) (Aβ 1-42 fibrils [1]; all concentrations tested)	inhibition of Aβ 1-42 fibril binding to Congo red (Aβ 1-42 fibrils [2]; all concentrations tested)
Cn1c(=O)c2c(ncn2Cc2ccc(O)c(O)c2)n(Cc2ccc(O)c(O)c2)c1=O [PD-152]	0%	0%	0%	72%	0%	6%	19%	22%	12%	13%	54%	87%	91%	4%	21%	48%	59%			
Cn1cnc2c1c(=O)n(Cc1ccc(O)c(O)c1)c(=O)n2Cc1ccc(O)c(O)c1 [PD-150, 7-Methyl-1,3-bis(3′,4′-dihydroxy)benzylxanthine]	0%	0%	22%	91%				35%	41%	35%	67%	87%	94%	10%	18%	46%	60%	effective		
Cn1c(=O)n(Cc2ccc(O)c(O)c2)c(=O)c2c1ncn2Cc1ccc(O)c(O)c1 [PD-151, 3-Methyl-1,7-bis(3′,4′-dihydroxybenzyl)xanthine]	0%	0%	0%	78%	3%	1%	6%	22%	18%	20%	56%	87%	94%	13%	12%	47%	63%			
Cn1c(=O)c2c(ncn2C)n(C)c1=O [Caffeine, reference compound]	0%	0%	0%	0%				0%			0%	0%	8%		0%	0%	1%		no significant inhibition	no significant inhibition
1,3-dimethyl-7-(3′,4′-dibenzyloxy)benzyl-8-(3′,4′-dihydroxyphenyl)xanthine [PD-154]	8%	44%	89%	89%	3%	0%	12%	0%	43%	36%	60%	74%	80%	0%	0%	0%	0%	effective		
Cn1c(=O)c2c(nc(-c3ccc(O)c(O)c3)n2C)n(C)c1=O [PD-153, 1,3,7-trimethyl-8-(3′,4′-dihydroxyoxyphenyl)xanthine]	13%	23%	0%	80%	1%	2%	6%	18%	5%	0%	6%	17%	63%	7%	20%	19%	20%			
